Test: gradient 5% acetonitrile 3 min, to 50% in 2 min, to 85% in 15 min, held 3 min, 100 µL/min
Conditions: column: Zorbax Extend-C18 2.1 x 50 mm; eluents: water / acetonitrile, 0.1% formic acid
How it was run: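 Retention times come from adduct peaks that were picked computationally and then checked by hand. The standards, pure and pooled in mixtures of ~100 molecules, were run on a Zorbax Extend-C18 column (2.1 × 50 mm, 1.8 μm) at 100 μL/min with water and acetonitrile, each with 0.1% formic acid. Detection was by quadrupole time-of-flight mass spectrometry in positive and negative ionization mode, with a dead volume of 40 μL and a dwell volume of 900 μL.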

SMILES | RP-LC retention time [s]
O=C(NCc1[nH]nc2ccccc12)c1ccc(Br)o1 | 725
CC(C)CNc1nc2ccncc2n(Cc2ccccc2)c1=O | 672
CCOC(=O)c1cccc(Nc2c(C(=O)N3CCCCC3C)cnc3nc(C)ccc23)c1 (stereo not given) | 666
O=C(NCCc1ccccc1)C(=O)c1ccc[nH]1 | 824
Cn1nnc2c(N3CCN(C(=O)c4c(F)cccc4Cl)CC3)ncnc21 | 687
Cn1ncc2c(N3CCSCC3)nc(C(=O)NCc3cccs3)nc21 | 778
CC(=O)N1CCC(C2CCN(Cc3ccc(Br)s3)C2)CC1 (stereo not given) | 603
O=C(C1CCCN(c2nc3ccccc3n3cccc23)C1)N1CCN(c2ccc(F)cc2)CC1 (stereo not given) | 805
CCn1nnc2ccc(-c3noc(C(C)NC(=O)c4ccccc4)n3)cc21 (stereo not given) | 689
COc1cccc(-c2noc(C3CCCN3C(=O)C3CCC3)n2)c1 (stereo not given) | 912
CC(C)NC(=O)N1CCN(c2nc3ccccc3n(Cc3ccccc3)c2=O)CC1 | 912
O=C(NCc1ccc(C(F)(F)F)cc1)c1cn2c(n1)CCCC2 | 646
CCOc1ccc(OCC)c(NC(=O)CCc2c(-c3ccc(Cl)cc3)nc3ccccn23)c1 | 788
CCN(CC)C(=O)c1cc2c(s1)CCC(C(=O)Nc1ccc3c(c1)OCCO3)C2 (stereo not given) | 775
COc1ccc(-c2c(C(=O)NCc3cccs3)nc3ccccn23)cc1 | 828
CCN1CCN(c2cc(C(=O)O)c3cc(NS(=O)(=O)c4cc(C)c(C)cc4C)ccc3n2)CC1 | 629
COc1ccc(Cn2c(=O)c3sccc3n(Cc3nc(-c4ccccc4Cl)no3)c2=O)cc1 | 1090
COc1ccc(-c2c(C(=O)NCCN3CCN(C)CC3)nc3ccccn23)cc1 | 574
Cc1sc(NC(=O)c2cccs2)nc1-c1ccc2c(c1)NC(=O)CO2 | 842
COCCn1c(Cc2cccn2C)nnc1SCC(=O)N1CCCc2ccccc21 | 809
Oc1ccc(-c2csc(Nc3ccccn3)n2)cc1 | 646
Clc1ccc(C(Cn2ccnc2)OCc2csc3c(Cl)cccc23)c(Cl)c1 (stereo not given) | 974
CCCNC(=O)Cn1cc(C(=O)Nc2ccc(C)c(C)c2)c(=O)c2ccc(C)nc21 | 966

SMILES | RP-LC retention time [s]
CC(C)(C)c1ccc(-c2noc(Cn3c(=O)n(-c4ccc(Cl)cc4)c(=O)c4sccc43)n2)cc1 | 1280
CCc1ccc(CNC(=O)c2nnc(-c3ccc(S(=O)(=O)N(C)C)cc3)o2)cc1 | 959
Cc1ccc(NS(=O)(=O)c2cc(-c3[nH]ncc3C(=O)N3CCOCC3)oc2C)cc1 | 695
Cc1cc(Cl)ccc1NC(=O)c1cc(C(C)C)on1 | 1090
COCCN1C(=O)c2ccccc2C(C(=O)NCc2ccccc2)C1c1cccs1 (stereo not given) | 842
CN1C(=O)c2cccnc2Sc2cc(NC(=O)c3cc(Cl)ccc3F)ccc21 | 859
CCCn1cc(S(=O)(=O)NCc2cccc(C)c2)c2cccnc21 | 943
O=C(CSc1nccn1-c1cccc(Cl)c1)Nc1ccccc1F | 841
CCNC(=O)Nc1ccc2c(c1)CN(S(=O)(=O)C(C)C)CCO2 | 676
CC(Oc1ccccc1)C(=O)N1CCN(c2nc(CN3CCCCC3)cs2)CC1 (stereo not given) | 650
CC(C)CCNC(=O)C1CCN(S(=O)(=O)c2ccc3c(c2)NC(=O)CO3)CC1 | 744
CCN(CC)C(=O)c1ccc2c(c1)N(CC(=O)N1CCC(C)CC1)C(=O)C1CCCCN21 (stereo not given) | 838
COc1ccc(C(=O)N2CCCC(COc3ccc(C(=O)NC(C)C)cc3)C2)cc1F (stereo not given) | 846
Cc1c(Cl)cccc1NC(=O)Cn1nc2c3cc(F)ccc3ncn2c1=O | 677
CC(C)n1cnc(S(=O)(=O)N2CCCC(C(=O)Nc3ccc(F)c(Cl)c3)C2)c1 (stereo not given) | 848
CCOC(=O)CSc1nnc2n1CCN2c1ccc(OC)cc1 | 707
CCCNC(=O)C1CCCN(c2ccc(SCC(=O)Nc3ccc(F)cc3F)nn2)C1 (stereo not given) | 657
CCN1C(=O)C2(CCN(S(=O)(=O)CC)CC2)c2ccccc21 | 774
Cc1ccc(N2C(=O)N(CC(=O)N3CCC(C)CC3)C3CS(=O)(=O)CC32)cc1Cl (stereo not given) | 879
Cn1nc(-c2nc(C3CC3)no2)c2c1CCN(S(=O)(=O)c1cccc(Cl)c1)C2 | 1000
CC(C)C1c2nccn2CCCN1C(=O)c1cc(C2CC2)[nH]n1 (stereo not given) | 592
CNC(=O)[C@@H]1CN(C(=O)c2cc(C3CC3)[nH]n2)C[C@H]1c1n[nH]c(C)n1 | 577
Cc1cccc(-c2noc(-c3nn(CC(=O)NC4CCCCC4)c4ccccc34)n2)c1 | 1250

SMILES | RP-LC retention time [s]
Clc1nccc2c1ccc1ccccc12 | 1140
COc1cccc(NC(=O)c2cc3c(s2)CN(C2CC2)C3)c1 | 760
Cc1ccc2c(c1)N(S(C)(=O)=O)CCC(C(=O)NCc1ccco1)O2 (stereo not given) | 793
COCC1(O)CCOC2(CCN(Cc3ccc(C)cc3C)CC2)C1 (stereo not given) | 559
Cc1nc(-c2ccc(N3CCN(C(=O)c4ccc(Br)o4)CC3)cc2)no1 | 912
COc1ccc2[nH]c(=O)c(CCC(=O)NCc3ccc(OC)c(OC)c3)cc2c1 | 648
CCc1cccc(C)c1NC(=O)C1CCCN(S(=O)(=O)c2cc(-c3noc(C)n3)cs2)C1 (stereo not given) | 995
CC(C)OC(=O)N1CCC(Oc2ncnc3c2cnn3-c2ccc(S(C)(=O)=O)cc2F)CC1 | 1060
COc1ccc(C)cc1NS(=O)(=O)c1ccc(-c2nnc(C3CCC3)o2)o1 | 922
CC(C)n1ccc(C(=O)Nc2nnc(-c3cc(Cl)sc3Cl)o2)n1 | 858
Cc1ccc2c(Nc3cccc(C)c3C)c(-c3nc(C)no3)cnc2n1 | 797
CCN1CCCC1CN(CC(=O)N1CCNCC1)S(=O)(=O)c1cc(Cl)ccc1OC (stereo not given) | 573
CCCn1c(CCc2cccc(NS(=O)(=O)c3cnn(CC)c3)c2)nc2ccccc21 | 675
COc1ccc(NC(=O)NC(C(=O)N2CCc3ccccc32)C(C)C)cc1OC (stereo not given) | 830
Cn1nc(-c2nc(C3CC3)no2)c2c1CCN(S(=O)(=O)c1ccccc1Cl)C2 | 952
CNC(=O)C1CCCN(c2nc3ncn(CC(=O)Nc4cc(Cl)ccc4C)c(=O)c3s2)C1 (stereo not given) | 669
CCS(=O)(=O)N1CCOc2ccc(CCC(=O)NC3CC3)cc2C1 | 675
Cc1ccnc(NS(=O)(=O)c2ccc(NC(=O)c3nc(-c4cnccn4)no3)cc2)n1 | 608
CCc1ccccc1N1C=C(C(=O)OC)S(=O)(=O)c2ccccc21 | 918
COc1ccc(NC(=O)Cn2nc3nc(N4CCOCC4)ccn3c2=O)cc1F | 602
Cc1cc(N2CCCCC2)nc(N2CCN(S(=O)(=O)c3ccc(-c4ccccc4)cc3)CC2)n1 | 935
O=C(NCCCOc1cccc2cccnc12)c1ccc(F)cc1Cl | 580
CCC(=O)NCc1nc2c(n1C)CN(S(=O)(=O)c1ccc(F)c(F)c1)CC2 | 571

SMILES | RP-LC retention time [s]
O=C(NCc1ccc(N2CCOCC2)cc1)c1cccc2c1CCN2C(=O)C1CC1 | 735
Cc1ncoc1C(=O)N1CCC(c2noc(-c3cnccn3)n2)C1 (stereo not given) | 620
CN(C)Cc1nc(-c2cn(C)c3ccccc23)no1 | 684
CCn1c(=O)c(NCc2ccccc2Cl)nc2ccncc21 | 659
CCCn1cc(C(=O)Nc2cccc(F)c2)c(S(=O)(=O)N2CCC(C)CC2)n1 | 1220
Cc1ccc(-c2noc(Cc3nnc(-c4ccc(F)cc4)o3)n2)cc1C | 1120
COCCn1cc2c3c(cccc31)CN(C(=O)c1cccc(Cl)c1)CC2 | 960
COCCN(CC1(C)CCOCC1)C(=O)NCc1cccc(F)c1 | 768
Cc1cc(N2CCN(c3ccccn3)CC2)n2nc(C(F)(F)F)nc2n1 | 604
Cc1ccnc(N2CCC(C(=O)NCc3ccc(CN4CCCCCC4)o3)CC2)n1 | 567
CCOc1ccc(-n2nnc(C(=O)OC)c2C(=O)OC)cc1 | 882
C=CCN1CCN(c2nc3cc(C(=O)OC)ccc3c(=O)n2-c2ccccc2)CC1 | 637
Cc1nn(C(C)C)c(C)c1S(=O)(=O)N1CCN(C(=O)c2cncc(Br)c2)CC1 | 762
Cc1noc(CNC(=O)C2CCN(S(=O)(=O)c3cccs3)CC2)n1 | 646
C=CCNC(=O)C1CCN(S(=O)(=O)c2cc(Cl)ccc2OCC)CC1 | 767
CCC(C)NC(=O)CSc1nccc(N2CCN(c3cc(C)ccc3C)CC2)n1 (stereo not given) | 873
O=C1NC(C(=O)NCC2CC2)Cn2cccc21 (stereo not given) | 602
CC1=C(c2ccccc2)S(=O)(=O)N=C1N1CCCN(C(=O)C(C)c2ccccc2)CC1 (stereo not given) | 873
COCCNC(=O)C1CCCN(C(=O)c2[nH]c(C)cc2C)C1 (stereo not given) | 644
CC(C)NC(=O)N1CCC2(CC1)C(=O)N(C)c1ccccc12 | 697
COc1ccc(-c2nc3cnccn3c2Nc2cccc(C(N)=O)c2)cc1 | 612

From the METLIN SMRT retention time set (Domingo-Almenara et al. 2019)
